The values below come from ChEMBL document CHEMBL1909046, “DrugMatrix in vitro pharmacology data”.

Broadly, the IC50 is the concentration that gives 50% inhibition. As a reminder, the Ki is a dissociation constant, usually derived from enzyme kinetics or from competition with a known ligand.

*1 amine or outer side, *2 acyl side, *3 side chain or, on linkers, in order; H or OH if unused. Where a SMILES comes first, the peptide text is derived from it. Bridges are numbered along the chain shown (N, C = ends). Roman numbers before positions name the chains, in order. [ ]: non-standard residue; d: D form. Actinocin(1to9) = Cc1c2oc3c(C)ccc(C(=O)[*:2])c3nc-2c(C(=O)[*:1])c(N)c1=O; NMeV = CN[C@H](C(=O)O)C(C)C; Sar = CNCC(=O)O

A short description of assay [1]: DRUGMATRIX: Purinergic P2X radioligand binding (ligand: [3H] alpha, beta-Methylene-ATP). To be noted: Not Active = under 50% inhibition at 10 µM. Format: cell membranes, Oryctolagus cuniculus, New Zealand albino, Urinary bladder, Membrane.
Assay [2] addresses Adenosine receptor A2a (Homo sapiens, UniProt P29274). Kind of assay: DRUGMATRIX: Adenosine A2A radioligand binding (ligand: […]). To be noted: hek293; Not Active = under 50% inhibition at 10 µM. Format: cell membranes, Membrane.
For assay [3], the target named is T1, Thromboxane-A synthase (Homo sapiens, UniProt P24557).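 Also: enzyme inhibition assay with PGH2 supplied as substrate; in other assays of this panel Not Active means under 50% inhibition at 10 µM.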
T1 sequence (P24557 whole entry): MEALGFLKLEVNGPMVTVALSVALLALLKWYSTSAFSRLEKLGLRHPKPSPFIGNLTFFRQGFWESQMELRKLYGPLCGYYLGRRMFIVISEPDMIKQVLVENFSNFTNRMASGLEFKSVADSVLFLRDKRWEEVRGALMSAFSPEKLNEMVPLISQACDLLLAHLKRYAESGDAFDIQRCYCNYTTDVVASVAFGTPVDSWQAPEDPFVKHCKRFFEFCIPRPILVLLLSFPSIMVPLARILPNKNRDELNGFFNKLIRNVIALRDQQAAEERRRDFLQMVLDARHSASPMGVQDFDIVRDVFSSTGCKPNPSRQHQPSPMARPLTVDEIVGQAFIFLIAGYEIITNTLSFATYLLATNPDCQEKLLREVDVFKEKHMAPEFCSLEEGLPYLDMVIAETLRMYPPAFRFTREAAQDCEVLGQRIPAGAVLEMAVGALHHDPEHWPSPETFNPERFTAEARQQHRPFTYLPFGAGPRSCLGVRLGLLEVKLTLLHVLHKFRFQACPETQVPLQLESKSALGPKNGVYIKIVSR
Kind of assay: biochemical. Format: tissue-based, Platelet.

For assay [4], the target named is T2, Alpha-1B adrenergic receptor (Rattus norvegicus, UniProt P15823).
T2 sequence (P15823 whole entry): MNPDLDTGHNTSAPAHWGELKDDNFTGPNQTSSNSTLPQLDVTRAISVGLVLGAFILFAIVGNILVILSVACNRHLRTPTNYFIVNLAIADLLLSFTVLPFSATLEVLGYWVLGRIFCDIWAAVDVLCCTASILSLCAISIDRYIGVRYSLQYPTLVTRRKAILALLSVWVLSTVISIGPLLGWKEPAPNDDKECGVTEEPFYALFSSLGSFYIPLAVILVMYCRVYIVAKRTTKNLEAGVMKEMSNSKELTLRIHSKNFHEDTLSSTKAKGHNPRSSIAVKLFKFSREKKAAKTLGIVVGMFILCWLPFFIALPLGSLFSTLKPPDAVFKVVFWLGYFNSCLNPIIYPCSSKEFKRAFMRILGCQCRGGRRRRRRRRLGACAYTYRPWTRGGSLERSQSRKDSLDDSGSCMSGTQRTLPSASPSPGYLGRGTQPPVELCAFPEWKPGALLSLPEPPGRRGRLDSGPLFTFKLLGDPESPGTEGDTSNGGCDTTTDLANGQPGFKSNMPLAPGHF
Kind of assay: DRUGMATRIX: Alpha-1B adrenergic receptor radioligand binding (ligand: prazosin). Format: cell membranes, Wistar, Liver, Membrane. To be noted: Not Active = under 50% inhibition at 10 µM.

Assay [5] has as its target T3, Alpha-2A adrenergic receptor (Homo sapiens, UniProt P08913). Also: in other assays of this panel Not Active means under 50% inhibition at 10 µM.
T3 sequence (P08913 whole entry): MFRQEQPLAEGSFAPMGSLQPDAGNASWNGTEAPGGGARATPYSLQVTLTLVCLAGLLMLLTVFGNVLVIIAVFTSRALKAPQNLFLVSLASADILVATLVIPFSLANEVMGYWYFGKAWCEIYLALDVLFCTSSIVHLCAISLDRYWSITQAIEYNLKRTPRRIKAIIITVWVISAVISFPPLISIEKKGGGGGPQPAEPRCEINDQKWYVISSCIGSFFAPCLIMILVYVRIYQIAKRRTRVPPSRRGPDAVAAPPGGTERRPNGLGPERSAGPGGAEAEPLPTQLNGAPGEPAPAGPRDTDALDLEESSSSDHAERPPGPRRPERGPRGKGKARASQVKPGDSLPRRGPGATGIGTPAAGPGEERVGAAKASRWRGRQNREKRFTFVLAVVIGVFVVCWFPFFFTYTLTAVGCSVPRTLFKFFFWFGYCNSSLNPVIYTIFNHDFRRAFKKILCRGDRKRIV
Format: cell membranes, Sf9, Membrane.

For assay [6], the target named is Beta-2 adrenergic receptor (Homo sapiens, UniProt P07550). Kind of assay: DRUGMATRIX: Adrenergic beta2 radioligand binding (ligand: [3H] CGP-12177). Format: cell membranes, Membrane. To be noted: cho; Not Active = under 50% inhibition at 10 µM.
Assay [7] can be described thus: DRUGMATRIX: Phosphodiesterase PDE3 enzyme inhibition (substrate: [3H]cAMP + cAMP). Format: tissue-based, Homo sapiens. To be noted: platelet; Not Active = under 50% inhibition at 10 µM.

Sequence of Adenosine receptor A2a (P29274 whole entry): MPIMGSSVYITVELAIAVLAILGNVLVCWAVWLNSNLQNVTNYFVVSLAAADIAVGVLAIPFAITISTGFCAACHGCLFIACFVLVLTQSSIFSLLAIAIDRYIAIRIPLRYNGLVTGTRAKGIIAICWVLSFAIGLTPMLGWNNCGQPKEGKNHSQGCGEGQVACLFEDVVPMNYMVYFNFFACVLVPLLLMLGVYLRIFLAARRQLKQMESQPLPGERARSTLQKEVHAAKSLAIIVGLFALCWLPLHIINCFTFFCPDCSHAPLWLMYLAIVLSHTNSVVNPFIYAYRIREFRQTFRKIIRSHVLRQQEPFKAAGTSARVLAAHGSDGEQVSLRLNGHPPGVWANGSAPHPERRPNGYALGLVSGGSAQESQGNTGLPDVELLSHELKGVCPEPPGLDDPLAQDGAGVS

For `C[C@H]1c2cccc(O)c2C(=O)C2=C(O)[C@]3(O)C(=O)C(C(N)=O)=C(O)[C@@H](N(C)C)[C@@H]3[C@@H](O)[C@@H]21.O` [DOXYCYCLINE], the 50% inhibitory concentration (IC50) entry in assay [1], in assay [2], in assay [3] (platelet), in assay [4], in assay [5] (sf9) and in assay [6] was “Not Active” throughout. Moreover, the 50% inhibitory concentration (IC50) result in assay [7] is listed as “Not Active”. The Ki entry in assay [1] and in assay [7] was “Not Active” each time.
In the case of CADMIUM ACETATE, the half-inhibitory concentration (IC50) entry in assay [1] is “Not Active”; in assay [2], “Not Active”; in assay [3] (platelet) it was “Not Active”; in assay [4], “Not Active”; in assay [5] (sf9, read-out: IC50) it was 4560 nM; in assay [6], “Not Active”. The IC50 result in assay [7] is “Not Active”. Besides, the Ki entry in assay [1], in assay [2], in assay [3] (platelet), in assay [4], in assay [6] and in assay [7] was “Not Active” throughout.
`CC(C)[C@@]1(NC(=O)[C@@H]2C[C@@H]3c4cccc5[nH]cc(c45)C[C@H]3N(C)C2)O[C@@]2(O)[C@@H]3CCCN3C(=O)[C@H](Cc3ccccc3)N2C1=O.CS(=O)(=O)O` [DIHYDROERGOCRISTINE MESYLATE]: the IC50 result is “Not Active” in assay [1]; “Not Active” in assay [2]; “Not Active” in assay [3] (platelet); 2.3 nM in assay [4] (read-out: IC50); 1.99 nM in assay [5] (read-out: IC50); “Not Active” in assay [6]. Besides, in assay [7], the IC50 result is recorded as “Not Active”. In addition, the Ki result in assay [1] is “Not Active”; in assay [4] (read-out: Ki), 1.27 nM; in assay [5] (read-out: Ki) it was 0.747 nM; in assay [7], “Not Active”.
For LIPOPOLYSACCHARIDE E. COLI O55:B5, the IC50 entry in assay [1], in assay [2], in assay [3] (platelet), in assay [4], in assay [5] (sf9) and in assay [6] was “Not Active” each time. Further, in assay [7], the 50% inhibitory concentration (IC50) entry is “Not Active”. Further, the Ki result in assay [1], in assay [2], in assay [3] (platelet), in assay [4], in assay [5] (sf9) and in assay [6] was “Not Active” each time. Further, the Ki entry in assay [7] is listed as “Not Active”.
Turning to `Nc1c(Br)cc(Br)cc1CN[C@H]1CC[C@H](O)CC1` [AMBROXOL], the IC50 entry in assay [1], in assay [2], in assay [3] (platelet), in assay [4], in assay [5] (sf9) and in assay [6] was “Not Active” each time. Also, in assay [7], the IC50 entry is recorded as “Not Active”. The Ki result in assay [1] and in assay [7] was “Not Active” throughout.
In the case of `NCCCCCC(=O)O` [AMINOCAPROIC ACID], the IC50 result in assay [1], in assay [2], in assay [3] (platelet), in assay [4], in assay [5] (sf9) and in assay [6] was “Not Active” throughout. Besides, the IC50 result in assay [7] was “Not Active”. The Ki result in assay [1] and in assay [7] was “Not Active” throughout.
For `CCC(C)n1ncn(-c2ccc(N3CCN(c4ccc(OCC5COC(Cn6cncn6)(c6ccc(Cl)cc6Cl)O5)cc4)CC3)cc2)c1=O` (configuration not stated) [ITRACONAZOLE], the IC50 result in assay [1], in assay [2], in assay [3] (platelet), in assay [4], in assay [5] (sf9) and in assay [6] was “Not Active” throughout. Moreover, in assay [7], the IC50 entry is given as “Not Active”. The inhibition constant Ki entry in assay [1] and in assay [7] was “Not Active” in each case.
Regarding `Cc1c(C)c2c(c(C)c1O)CC[C@@](C)(CCC[C@H](C)CCC[C@H](C)CCCC(C)C)O2` [ALPHA-TOCOPHEROL], the IC50 result in assay [1], in assay [2], in assay [3] (platelet), in assay [4], in assay [5] (sf9) and in assay [6] was “Not Active” throughout. In addition, the IC50 entry in assay [7] is “Not Active”. Further, the Ki entry in assay [1] and in assay [7] was “Not Active” throughout.
On to `Cc1cc(C(C#N)c2ccc(Cl)cc2)c(Cl)cc1NC(=O)c1cc(I)cc(I)c1O` (configuration not stated) [CLOSANTEL], for which the IC50 result is “Not Active” in assay [1]; “Not Active” in assay [2]; 64 nM in assay [3] (read-out: IC50); “Not Active” in assay [4]; “Not Active” in assay [5] (sf9); “Not Active” in assay [6]. Besides, the 50% inhibitory concentration (IC50) entry in assay [7] is on record as “Not Active”. In addition, the Ki entry in assay [1] and in assay [7] was “Not Active” each time.
Consider `CNNCc1ccc(C(=O)NC(C)C)cc1` [PROCARBAZINE], for which the concentration for half-maximal inhibition (IC50) result in assay [1], in assay [2], in assay [3] (platelet), in assay [4], in assay [5] (sf9) and in assay [6] was “Not Active” throughout. In addition, the IC50 entry in assay [7] was “Not Active”. Also, the Ki entry in assay [1] and in assay [7] was “Not Active” throughout.
`Cc1ccc2cc3c(ccc4ccccc43)c3c2c1CC3` [3-METHYLCHOLANTHRENE]: the IC50 result in assay [1], in assay [2], in assay [3] (platelet), in assay [4], in assay [5] (sf9) and in assay [6] was “Not Active” in each case. The 50% inhibitory concentration (IC50) result in assay [7] is “Not Active”. For the same compound, the Ki result in assay [1] and in assay [7] was “Not Active” each time.
On to `CNCCc1ccccn1` [BETAHISTINE], for which the IC50 entry in assay [1], in assay [2], in assay [3] (platelet), in assay [4], in assay [5] (sf9) and in assay [6] was “Not Active” throughout. In addition, the half-maximal inhibitory concentration (IC50) entry in assay [7] is on record as “Not Active”. Further, the inhibitory constant (Ki) result in assay [1] and in assay [7] was “Not Active” in each case.
`OC(Cn1cncn1)(Cn1cncn1)c1ccc(F)cc1F` [FLUCONAZOLE]: the IC50 entry in assay [1], in assay [2], in assay [3] (platelet), in assay [4], in assay [5] (sf9) and in assay [6] was “Not Active” in each case. Besides, the IC50 entry in assay [7] was “Not Active”. Also, the inhibitory constant (Ki) entry in assay [1] and in assay [7] was “Not Active” throughout.
In the case of `Cc1c2oc3c(C)ccc(C(=O)N[C@@H]4C(=O)N[C@H](C(C)C)C(=O)N5CCC[C@H]5C(=O)N(C)CC(=O)N(C)[C@@H](C(C)C)C(=O)O[C@@H]4C)c3nc-2c(C(=O)N[C@@H]2C(=O)N[C@H](C(C)C)C(=O)N3CCC[C@H]3C(=O)N(C)CC(=O)N(C)[C@@H](C(C)C)C(=O)O[C@@H]2C)c(N)c1=O` [DACTINOMYCIN] (I: T[dV]P[Sar][NMeV] / II: T[dV]P[Sar][NMeV]; ester I:1-I:C, II:1-II:C; linker I:N-II:N via Actinocin(1to9)), the IC50 entry in assay [1], in assay [2], in assay [3] (platelet), in assay [4], in assay [5] (sf9) and in assay [6] was “Not Active” in each case. Further, the concentration for half-maximal inhibition (IC50) result in assay [7] is on record as “Not Active”. Also, the inhibition constant Ki result in assay [1] and in assay [7] was “Not Active” each time.
